Tests used:
[1] = test system: Rhyzopertha dominica; assay: whole plant or invertebrate; details: Rhyzopertha dominica, read-out: Mortality (%) (Mean ± SD)
Experimental: (§1) Cryptolestes sp. was reared on wheat feed. S. oryzae, Cryptolestes sp. and T. castaneum cultures were maintained at 25±1° C. and 70% RH whereas R. dominica cultures were maintained at 30±1° C. and 70% RH. From the established cultures, 2-week-old adults were taken and counted into 10 cm×2.3 cm size test tubes at 50 per replicate. The mouth of the tube was closed with a cloth piece held by small rubber ring. The insects were exposed to a range of doses (10 to 100 mg/litre) of esters for 24 hours in 0.85-liter desicators at the laboratory temperature of 26±2° C. Pure grade esters including allyl acetate, butyl acetate, ethyl acetoacetate, isopropyl acetate and propyl acetate were procured from Merck India Ltd. In each desiccator a 9 cm diameter Whatman No. 1 filter circle was placed; the filter circle acted as evaporating surface for the injected liquids (esters). Required quantity of the ester was drawn from the bottles using 10, 25 or 50 micro litre liquid syringe. There were 6 replicates for each dose with equal number of replicates for untreated control. The exposure period in all cases was 24 hours. […] Insect mortality was assessed after 14 days. Corrected mortality was arrived at based on Abbott's formula (1925).

[2] = test system: Sitophilus oryzae; assay: whole plant or invertebrate; details: Sitophilus oryzae, read-out: Mortality (%) (Mean ± SD)
Experimental: as §1

[3] = test system: Tribolium castaneum; assay: whole plant or invertebrate; details: Tribolium castaneum, read-out: Mortality (%) (Mean ± SD)
Experimental: as §1

[4] = test system: human beings; details: cited from earlier work
[5] = cited from earlier work

SMILES	mortality at 10 µg/mL [1] [%]	mortality at 20 µg/mL [1] [%]	mortality at 30 µg/mL [1] [%]	mortality at 50 µg/mL [1] [%]	mortality at 100 µg/mL [1] [%]	mortality at 10 µg/mL [2] [%]	mortality at 20 µg/mL [2] [%]	mortality at 30 µg/mL [2] [%]	mortality at 50 µg/mL [2] [%]	mortality at 100 µg/mL [2] [%]	mortality at 10 µg/mL [3] [%]	mortality at 20 µg/mL [3] [%]	mortality at 30 µg/mL [3] [%]	mortality at 50 µg/mL [3] [%]	mortality at 100 µg/mL [3] [%]	toxicity to human beings [4]	Solubility in water [5]	vapour pressure ([5]; at 25° C.)
CCOC(=O)CC(C)=O [Ethyl acetoacetate, ethyl acetoacetate]	0	0	5.7 ± 10.4	8.6 ± 17.1	0.4 ± 0.9	3.1 ± 6.9	4.7 ± 7.1	5.1 ± 5.7	6.5 ± 5.5	15.8 ± 14	0.6 ± 2.6	0.8 ± 1.1	0.3 ± 1.1	0.7 ± 0.8	1.3 ± 0.8	–	–	–
CCCCOC(C)=O [Butyl acetate, butyl acetate]	1.6 ± 3.5	0	0.2 ± 0.7	20.9 ± 26.8	100	8.3 ± 12.3	1.7 ± 2.4	3.2 ± 4.5	67.3 ± 7.7	100	2 ± 2.6	2.1 ± 1.1	0.6 ± 1.1	13.9 ± 0.8	96.2 ± 0.8	–	–	–
N#CC#N [cyanogen, reference compound]	–	–	–	–	–	–	–	–	–	–	–	–	–	–	–	highly toxic	highly water-soluble	–
CCCOC(C)=O [Propyl acetate, propyl acetate]	2 ± 4	7.3 ± 10	5.3 ± 10.6	65.4 ± 40	100	2.4 ± 3.8	0.5 ± 1.3	14.2 ± 8.1	74.3 ± 20.2	100	0.9	0.9	12.6 ± 21.2	83.2 ± 26.3	100	–	–	–
CC(=O)OC(C)C [Isopropyl acetate, isopropyl acetate]	4.4 ± 6.9	8.9 ± 10.7	6.1 ± 6.7	39.2 ± 8.2	100	5.5 ± 6.9	2.3 ± 5.6	3.7 ± 7.56	47.1 ± 31.2	100	0.3 ± 0.6	1.3 ± 1.7	32.7 ± 44.1	66.5 ± 27.7	100	–	–	–
O=S(=O)(F)F [sulfuryl fluoride, reference compound]	–	–	–	–	–	–	–	–	–	–	–	–	–	–	–	–	–	13,442 mm of Hg

Source: patent US20040191287A1, “Fumigation process for stored food grains” (priority 2003, published 2004)
